# Results as given in patent US10202349B2, “Asymmetric bis-acridines with antitumour activity and their uses” (POLITECHNIKA GDAŃSKA, priority 2015, dated 2019).
# Columns and labels:
# AsPC-1 = test: Cytotoxic activity in vitro, SRB; type: cell-based, human
# Procedure, shortened: (§1)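 Cytotoxicity was measured with the sulforhodamine B (SRB) assay following the US National Cancer Institute protocol. EC50 is the compound concentration that inhibits proliferation of the human tumour cells by 50% relative to untreated control.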
# DU-145 = test: Cytotoxic activity in vitro, SRB; type: cell-based, human
# Procedure, shortened: as §1
# H-460 = test: Cytotoxic activity in vitro, SRB; type: cell-based, human
# Procedure, shortened: as §1
# HCT-116 = test: Cytotoxic activity in vitro, SRB; type: cell-based, human
# Procedure, shortened: as §1
# HT-29 = test: Cytotoxic activity in vitro, SRB; type: cell-based, human
# Procedure, shortened: as §1
# MCF-7 = test: Cytotoxic activity in vitro, SRB; type: cell-based, human
# Procedure, shortened: as §1
# MDA-MB-231 = test: Cytotoxic activity in vitro, SRB; type: cell-based, human
# Procedure, shortened: as §1
# MiaPaCa-2 = test: Cytotoxic activity in vitro, SRB; type: cell-based, human
# Procedure, shortened: as §1
# PANC-1 = test: Cytotoxic activity in vitro, SRB; type: cell-based, human
# Procedure, shortened: as §1
# PC-3 = test: Cytotoxic activity in vitro, SRB; type: cell-based, human
# Procedure, shortened: as §1
# UM-UC-3 = test: Cytotoxic activity in vitro, SRB; type: cell-based, human
# Procedure, shortened: as §1
# DU 145 = test: Anti-neoplasmic activity against xenograft in hairless mice; type: in vivo
# Description: (§2) For this, we selected 26 bis-acridines, mainly on the basis of the cytotoxic activity. We performed 34 series of experiments evaluating the anti-neoplasmic activity on xenografts in hairless mice against eleven neoplasms of human origin from the determination of the cytotoxic activity of bis-acridines (table 4). The tumours were injected subcutaneously to hairless mice of 5-weeks, female Crl:Nu-Foxnlnu, at a rate of 5×10^6 cells per mouse. After attaining a tumour of about 100 mm^3 or 200 mm^3 in depending on the neoplasm and its take this was 8 or even 30 days, and began therapy. On the day therapy was initiated, we randomised the animals and divided them into groups. Test groups were from 6 to 8 animals, and controls had from 8 to 14 animals. Each compound was tested at three differentiated doses.
# (§3) The preparations were administered intravenously (i.v.) twice weekly for 4 weeks (thrice weekly for rapidly growing neoplasms). In several series, we used intraperitoneally (i.p.) administration in the same scheme. […] The therapeutic efficacy of the tested formulations was evaluated by measuring tumour size (length and width measurements of the tumour on the basis of the calculated tumour volume). Tumours were measured twice weekly for a period of about 30 days for fast-growing neoplasms, as well as about 60 days for the slow-growing neoplasms. The tumour volume in the treated groups compared with the control group. On this basis, inhibition of tumour growth was calculated using the following formula: Tumour growth inhibition TGI [%]=100−(ΔVT/ΔVC×100) Where ΔVT—is mean the tumour volume in animals in the group treated at the given day of treatment, minus the mean tumour volume in animals at the date of commencement of therapy. ΔVC is mean tumour volume in animals in the control group on a given day of treatment minus the average tumour volume of animals on the date of commencement of therapy. The results of the tests of anti-neoplasmic activity conducted in xenografts of human-origin neoplasms in mice are shown in Table 5.
# (§4) The result above was accepted only in the case that the dose administered in all animals or more than half of the animals that survived to the end of the experiment. In addition, the evaluation was the day that the administration of the preparation was already completed: for the fast-growing neoplasms (eg. HCT116) this was in the days from 15 to 26, while for slow-growing neoplasms (eg. Panc 1) on a day from 34 to 60. […] In addition, the maximum inhibition of neoplasms could be identified in the day, in which there were no factors that could change the value TGI value.
# (§5) Such factors may include: a significant decrease in body weight, the appearance of observable toxaemia, excessive rate of tumour growth: tumours in excess of 2000 mm^3 and all animals alive on that day.
# HCT 116 = test: as above; type: in vivo
# Description: as §2, §3, §4, §5
# PC 3 = test: as above; type: in vivo; settings: day 39
# Description: as §2, §3, §4, §5
# BxPC-3 = test: Cytotoxic activity in vitro, SRB; type: cell-based, human
# Procedure, shortened: as §1
# H 460 = test: Anti-neoplasmic activity against xenograft in hairless mice; type: in vivo
# Description: as §2, §3, §4, §5
# MDA MB 231 = test: as above; type: in vivo
# Description: as §2, §3, §4, §5
# PANC 1 = test: as above; type: in vivo
# Description: as §2, §3, §4, §5
# UM UC 3 = test: as above; type: in vivo; settings: series 11, i.v., day 23
# Description: as §2, §3, §4, §5
# Capan-2 = test: Cytotoxic activity in vitro, SRB; type: cell-based, human
# Procedure, shortened: as §1
# Mia Pa Ca 2 = test: Anti-neoplasmic activity against xenograft in hairless mice; type: in vivo
# Description: as §2, §3, §4, §5
# AsPC 1 = test: as above; type: in vivo; settings: series 23, i.p., single 2 mg/kg, total 16 mg/kg, day 39
# Description: as §2, §3, §4, §5
# BXPC 3 = test: as above; type: in vivo; settings: single 2 mg/kg, total 16 mg/kg
# Description: as §2, §3, §4, §5
SMILES,EC50 (AsPC-1),EC50 (DU-145),EC50 (H-460),EC50 (HCT-116),EC50 (HT-29),EC50 (MCF-7),EC50 (MDA-MB-231),EC50 (MiaPaCa-2),EC50 (PANC-1),EC50 (PC-3),EC50 (UM-UC-3),EC50 (BxPC-3),EC50 (Capan-2),further results
"CN(CCCNc1c2ccccc2nc2cccc([N+](=O)[O-])c12)CCCNc1ccc([N+](=O)[O-])c2[nH]c3ccc(O)cc3c(=O)c12 [C-1906, 9-{N-[(7-hydroxy-4-nitro-9(10H)acridono-1-yl)aminopropyl]-N-methylaminopropylamino}-1′-nitroacridone]",135 nM,43 nM,14 nM,15 nM,22 nM,74 nM,20 nM,24 nM,32 nM,52 nM,14 nM,–,–,"TGI [%] [100 − (ΔVT/ΔVC × 100] (DU 145; series 1, i.p., single 2 mg/kg, total 6 mg/kg, day 35, *at least half of animals did not survive): 60* %; TGI [%] [100 − (ΔVT/ΔVC × 100] (HCT 116; series 9, i.v., single 1 mg/kg, total 5 mg/kg, day 16, *at least half of animals did not survive): 32* %; TGI [%] [100 − (ΔVT/ΔVC × 100] (PC 3; series 15, i.p., single 2 mg/kg, total 12 mg/kg): 52%"
"Cc1ccc(NCCCN2CCN(CCCNc3c4ccccc4nc4cccc([N+](=O)[O-])c34)CC2)c2c(=O)c3ccccc3[nH]c12 [C-1973, 1-[3-(4-methyl-9(10H)-acridono-1-yl)aminopropyl]-4-3′-[(1′-nitroacridin-1-yl)-aminopropyl]piperazine]",79 nM,20 nM,5 nM,19 nM,23 nM,113 nM,28 nM,16 nM,27 nM,48 nM,9.5 nM,59 nM,–,"TGI [%] [100 − (ΔVT/ΔVC × 100] (DU 145; series 13, i.v., single 4 mg/kg, total 32 mg/kg, day 63): 90%; TGI [%] [100 − (ΔVT/ΔVC × 100] (DU 145; series 18, i.v., single 1 mg/kg, total 8 mg/kg, day 33): 51%; TGI [%] [100 − (ΔVT/ΔVC × 100] (H 460; series 16, i.v., single 2 mg/kg, total 10 mg/kg, day 21): 42%; TGI [%] [100 − (ΔVT/ΔVC × 100] (MDA MB 231; series 19, i.v., single 1 mg/kg, total 8 mg/kg, day 50): 30%; TGI [%] [100 − (ΔVT/ΔVC × 100] (PANC 1; series 31, i.v., single 2 mg/kg, total 16 mg/kg, day 37): 75%; TGI [%] [100 − (ΔVT/ΔVC × 100] (UM UC 3; single 2 mg/kg, total 14 mg/kg): 46%"
"O=c1c2cc(O)ccc2n2cnc3ccc(NCCCN4CCN(CCCNc5c6ccccc6nc6cccc([N+](=O)[O-])c56)CC4)c1c32 [C-2027, 1-[3-(8-hydroxy-imidazo[4,5,1-de]-acridin-6-on-5-yl)aminopropyl]-4-[3′-(1′-nitroacridin-1-yl)-aminopropyl]piperazine]",191 nM,20 nM,17 nM,20 nM,81 nM,62 nM,19 nM,21 nM,24 nM,35 nM,18 nM,164 nM,43 nM,"TGI [%] [100 − (ΔVT/ΔVC × 100] (HCT 116; series 7, i.v., single 2.5 mg/kg, total 15 mg/kg, day 15): 15%; TGI [%] [100 − (ΔVT/ΔVC × 100] (Mia Pa Ca 2; series 12, i.v., single 2 mg/kg, total 16 mg/kg, day 26): 29%; TGI [%] [100 − (ΔVT/ΔVC × 100] (PANC 1; series 10, i.v., single 2 mg/kg, total 10 mg/kg, day 45): 83%; TGI [%] [100 − (ΔVT/ΔVC × 100] (PANC 1; series 14, i.v., single 1 mg/kg, total 10 mg/kg, day 45): 23%; TGI [%] [100 − (ΔVT/ΔVC × 100] (PANC 1; series 30, i.v., single 1 mg/kg, total 8 mg/kg, day 32, *at least half of animals did not survive): 51* %; TGI [%] [100 − (ΔVT/ΔVC × 100] (UM UC 3; single 4 mg/kg, total 28 mg/kg): 47%"
"O=c1c2ccccc2[nH]c2c([N+](=O)[O-])ccc(NCCCN3CCN(CCCNc4c5ccccc5nc5cccc([N+](=O)[O-])c45)CC3)c12 [C-2031, 1-[3-(4-nitro-9(10H)-acridono-1-yl)aminopropyl]-4-[3′-(1′-nitroacridin-1-yl)-aminopropyl]piperazine]",78 nM,11 nM,9 nM,20 nM,–,77 nM,28 nM,28 nM,56 nM,26 nM,17 nM,–,–,"TGI [%] [100 − (ΔVT/ΔVC × 100] (DU 145; series 13, i.v., single 4 mg/kg, total 32 mg/kg, day 35): 77%; TGI [%] [100 − (ΔVT/ΔVC × 100] (DU 145; series 18, i.p., single 1 mg/kg, total 8 mg/kg, day 64): 81%; TGI [%] [100 − (ΔVT/ΔVC × 100] (H 460; series 6, i.v., single 8 mg/kg, total 48 mg/kg, day 23): 60%; TGI [%] [100 − (ΔVT/ΔVC × 100] (HCT 116; series 8, i.v., single 6 mg/kg, total 18 mg/kg, day 14, *at least half of animals did not survive): 52* %; TGI [%] [100 − (ΔVT/ΔVC × 100] (HCT 116; series 9, i.v., single 3 mg/kg, total 24 mg/kg, day 30): 34%; TGI [%] [100 − (ΔVT/ΔVC × 100] (PANC 1; series 10, i.v., single 3 mg/kg, total 30 mg/kg, day 45): 72%; TGI [%] [100 − (ΔVT/ΔVC × 100] (PANC 1; series 14, i.v., single 1 mg/kg, total 10 mg/kg, day 37): 27%; TGI [%] [100 − (ΔVT/ΔVC × 100] (PC 3; series 15, i.v., single 1 mg/kg, total 8 mg/kg): 30%"
"O=c1c2ccccc2n2cnc3ccc(NCCCN4CCN(CCCNc5c6ccccc6nc6cccc([N+](=O)[O-])c56)CC4)c1c32 [C-2041, 1-[3-(imidazo[4,5,1-de]-acridin-6-on-5-yl)aminopropyl]-4-[3′-(1′-nitroacridin-1-yl)-aminopropyl]piperazine]",69 nM,22 nM,–,25 nM,–,82 nM,21 nM,39 nM,24 nM,–,–,54 nM,32 nM,"TGI [%] [100 − (ΔVT/ΔVC × 100] (AsPC 1): 29%; TGI [%] [100 − (ΔVT/ΔVC × 100] (BXPC 3; series 21, i.v., day 44): 81%; TGI [%] [100 − (ΔVT/ΔVC × 100] (BXPC 3; series 33, i.v., day 32): 48%; TGI [%] [100 − (ΔVT/ΔVC × 100] (DU 145; series 18, i.v., single 2 mg/kg, total 16 mg/kg, day 33): 61%; TGI [%] [100 − (ΔVT/ΔVC × 100] (MDA MB 231; series 34, i.v., single 4 mg/kg, total 32 mg/kg, day 32): 53%; TGI [%] [100 − (ΔVT/ΔVC × 100] (Mia Pa Ca 2; series 28, i.v., single 6 mg/kg, total 12 mg/kg, day 15, *at least half of animals did not survive): 38* %; TGI [%] [100 − (ΔVT/ΔVC × 100] (PANC 1; series 17, i.v., single 2 mg/kg, total 16 mg/kg, day 60): 76%; TGI [%] [100 − (ΔVT/ΔVC × 100] (PANC 1; series 27, i.v., single 2 mg/kg, total 16 mg/kg, day 33): 83%; TGI [%] [100 − (ΔVT/ΔVC × 100] (PANC 1; series 32, i.v., single 1 mg/kg, total 16 mg/kg, day 33): 82%"
